This is an account of results in patent US20050042213A1, “Methods and pharmaceutical compositions for modulating heparanase activation and uses thereof” (InSight Biopharmaceuticals Ltd., priority 2003, published 2005).

Test [1] concerns the target T1, pro-heparanase (H60) (Homo sapiens, UniProt Q9Y251, K307R).
T1 sequence (Q9Y251 36-543 K307R): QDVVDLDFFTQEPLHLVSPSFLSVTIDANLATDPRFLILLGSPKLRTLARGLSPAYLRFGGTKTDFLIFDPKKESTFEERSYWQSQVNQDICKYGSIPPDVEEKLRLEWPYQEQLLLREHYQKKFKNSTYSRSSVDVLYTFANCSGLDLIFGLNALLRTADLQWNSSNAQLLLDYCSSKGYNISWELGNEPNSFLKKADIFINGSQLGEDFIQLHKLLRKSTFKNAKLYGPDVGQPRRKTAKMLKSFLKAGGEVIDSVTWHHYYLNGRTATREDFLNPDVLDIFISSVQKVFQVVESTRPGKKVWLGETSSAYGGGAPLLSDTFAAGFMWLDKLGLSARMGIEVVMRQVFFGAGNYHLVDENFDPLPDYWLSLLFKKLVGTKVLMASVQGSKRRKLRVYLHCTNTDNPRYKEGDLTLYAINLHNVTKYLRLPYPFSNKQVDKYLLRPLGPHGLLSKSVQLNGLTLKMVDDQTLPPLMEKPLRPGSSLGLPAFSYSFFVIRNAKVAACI
Nature of the test: Surface plasmon resonance, interaction with the pro-heparanase polypeptide. Type of test: binding. The note with it: data not shown.

The test system of another test is HUVEC cells. Nature of the test: Cord Formation Assay. It counts as cell-based. The note with it: Homo sapiens; HUVEC cells on matrigel, 24 h; read-out: Inhibition of cord formation IC50. The protocol:
Cord formation and cell migration assays were executed following explicit directives provided by the inventors of the present invention by the National Cancer Institute (Biological Testing Branch, Developmental Therapeutics Program, DCTD, NCI, Fairview Center, Suite 205, 1003 West 7th Street, Frederick, Md. 21701-8527).
Cord Formation Assay—Matrigel (60 μl of 10 mg/ml; Collaborative Lab # 35423) was placed in each well of an ice-cold 96-well plate. The plate was incubated at room temperature for 15 minutes and then transferred to 37° C. for 30 minutes to permit matrigel polymerization. Concomitantly with plate coating, HUVEC cells were diluted in EGM-2 (Clonetic # CC3162) at a concentration of 2×10^5 cells/ml. Each test compound was prepared at a 2 fold higher concentration than desired (5 concentration levels) using the same medium. Cells (500 μl) and 2× drug (500 μl) were mixed and 200 μl of this suspension were placed in duplicates on the polymerized matrigel. Following 24 h incubation, triplicate pictures were taken for each concentration using a Bioquant Image Analysis system. Drug effect (IC50) was assessed by comparing to untreated controls and measuring the length of cords formed and number of junctions.

The target of test [2] is T2, pro-heparanase transiently expressed in 293 cells (Homo sapiens, UniProt Q9Y251, K307R).
T2 sequence (Q9Y251 36-543 K307R): T1 sequence (Q9Y251 36-543 K307R)
Put plainly: Pro-heparanase processing in transiently transfected 293 cells (Western blot). It counts as cell-based. The protocol: Western blot analysis—Western blot analysis was performed using rabbit anti-heparanase polyclonal antibodies as described in U.S. Pat. Nos. 6,177,545; 6,531,129; and 6,562,950.
Transient transfections—293 cells (200,000) were plated onto a 6 well tissue culture plate. 24 hrs later, the cells were transfected with 1 μg pSI (Promega) hpa plasmid (U.S. Pat. No. 6,475,763) in 3 μl Fugene reagent that was pre-incubated for 15 min in 100 μl medium without serum. Cells were treated with inhibitors 4 and 17 hrs following transfection.

Test [3] relates to MPanc-96 pancreatic tumor cells. Nature of the test: MPanc-96 pancreatic tumor xenograft in SCID mice. Type of test: in vivo. As for the experimental part:
Mpanc-96 tumor cell injection—MPanc-96 pancreatic tumor cells were obtained from the ATCC(CCL-2380). On day 1, cells (5×10^6 cells/0.2 ml RPMI+FBS) were subcutaneously injected to the right flank, midway between the axillary and inguinal regions, of SCID mice. Prior to injection the cells were mixed by gentle vortexing. The cells were injected using a 25G needle, and the appearance of a bulge was observed. Following injection to animals, cells were counted in the leftover tubes with trypan blue, and re-cultured to test proliferation.
Compound 5 injections—Tumors were measured prior to inhibitor injection. […] The animals were injected intraperitoneally, daily, twice a day, starting 6 days after tumor cells injection, with 50 μl plain DMSO or 50 μl of Compound 5 in DMSO (8 mg/ml in DMSO).
Tumor growth—Tumor size was measured in two perpendicular dimensions, twice a week using digital calipers. Volumes were estimated using the formula (α^2×β)/2, where α is the shorter of the two dimensions, and β is the longer of the two dimensions.
Study termination—At the end of the study, 21 days following tumor cell injection, animals were euthanized by IP veterinary penthal injection. In case of severe weight loss (>20%), a tumor>1000 mm^3 or depression, an animal was euthanized prior to the study's termination day. Upon animal death prior to the end of the study, body weight and tumor size were measured.

Test [4] addresses T1, pro-heparanase (H60). Put plainly: Pro-heparanase activation in a cell-based assay (293 cells, DMB assay). As to conditions: inhibition of pro-heparanase activation (H60); Table 15.
The target of a further test is T3, β-FGF (Homo sapiens, UniProt P09038).
T3 construct: purchased Sigma F0291
Put plainly: Elisa assay for binding of β-FGF to heparin. The note with it: inhibition of β-FGF binding to heparin. As for the experimental part: Elisa assay for determination of binding of β-FGF to heparin—96 well microplates were coated overnight with Heparin-albumin (Lizard) and blocked with 1% BSA in PBS with 0.05% Tween and 0.01% thimerosal for 2 hrs. β-FGF was added to the plates at a concentration of 0.8 ng/ml and incubated for 45 min at 23-25° C. The amount of β-FGF bound to heparin was detected using anti-FGF monoclonal antibody (Sigma Cat. # F6162) at a concentration of 2.5 ng/ml and secondary antibodies Sheep anti-mouse IgG linked to horseradish peroxidase (1:3000). TMB (Pierce Cat. #34021) was used as a substrate for peroxidase.
The plates were read at 450 nm with a reference wavelength of 630 nm using a VERSAmax plate reader. […] Percent inhibition was calculated as compared with the control reactions pre-incubated with 1% DMSO only.

SMILES strings stand for the structures.

T3 sequence (P09038 143-288): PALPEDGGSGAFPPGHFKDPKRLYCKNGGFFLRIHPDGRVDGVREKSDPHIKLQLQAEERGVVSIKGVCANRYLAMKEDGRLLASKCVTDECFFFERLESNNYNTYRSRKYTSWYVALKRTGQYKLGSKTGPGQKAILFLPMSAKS

Usually IC50 stands for the concentration needed to halve the response being measured. On to `O=C(O)CCCN1C(=O)C(=Cc2ccc(-c3ccc([N+](=O)[O-])cc3)o2)SC1=S` [Compound 5], for which, on pro-heparanase (H60) [1], the “binding to the H60 molecule” value is “reversibly bind”. Moreover, the IC50 in the test with HUVEC cells was 3.9 µM; against pro-heparanase (H60) [4], 0.13 µM; on β-FGF, 6.1 µM. The pro-heparanase expression entry in test [2] was “did not affect pro-heparanase expression”. In test [2], the pro-heparanase processing entry is “completely inhibited pro-heparanase processing”. Further, the “reduction of tumor volume” value in test [3] (10 mg/kg/day, compared with 40 mg/kg/day) was “twice as much reduction”; in test [3] (40 mg/kg/day, intraperitoneally, SCID mice), 35%. The “tumor growth in SCID mice” value in test [3] (mouse, in vivo) is recorded as “inhibited tumor growth in SCID mice efficiently”.
